Laboratory results: patent US20040005601A1, “Methods for targeting quadruplex DNA” (priority 2002, published 2004)

Key:
[1] = test system: Pu27 chair quadruplex (CMYC NHE III1); assay: Taq polymerase stop assay at 60° C. with Pu27 insert template; type: biochemical
Experimental: The same wild-type and mutant sequences of the Pu27 were used in a Taq polymerase stop assay, which was described in Han et al., Nucl. Acids Res. 27: 537-542 (1999). This assay is a modification of that used by Weitzmann et al., J. Biol. Chem. 271, 20958-20964 (1996), and is also described below. A reaction mixture of template DNA (77-mer with a Pu27 or mutant Pu27 insert) (50 nM), Tris.HCl (50 mM), MgCl2 (10 mM), DTT (0.5 mM), EDTA (0.1 mM), BSA (60 ng), and 5′-end-labeled 18-mer primer (˜18 nM) was heated to 90° C. for 5 min and allowed to cool to ambient temperature over 30 min. Taq Polymerase (1 μl) was added to the reaction mixture, and the reaction was maintained at a constant temperature (45° C. for the mutant Pu27 comparison; 60° C. for the porphyrin comparison) for 30 min. (For the porphyrin comparison, following cooling to ambient temperature, the requisite amount of porphyrin solution was added to the reaction mixture and left at ambient temperature for 30 min prior to the addition of polymerase.) Following the addition of 10 μl stop buffer (formamide [20 ml], 1 M NaOH [200 μl], 0.5 M EDTA [400 μl], 10 mg bromophenol blue), the DNA fragments were separated with a sequencing gel (12%) and visualized on a phosphorimager. Adenine sequencing (indicated by “A” at the top of the gel) was performed using double-stranded DNA Cycle Sequencing System from Life Technologies. The general sequence for 77-mer template strands was TCCAACTATGTATAC-INSERT-[…], and the 1 8-mer primer had the sequence TAATACGACTCACTATAG.
To further determine whether this selectivity of TMPyP4 versus TMPyP2 for the chair conformation correlated with an effect on CMYC transcription, a Taq polymerase stop assay was performed at an elevated temperature (60° C.) to partially destabilize the arresting quadruplex structure in the presence of increasing concentrations of TMPyP2 and TMPyP4. […] This is in agreement with the differential effects of the two compounds on CMYC expression in vitro and sensitivity in vivo to tumors that overexpress CMYC (MX-1 and PC-3).

Pu27 chair G-quadruplex = assay: Porphyrin photocleavage of Pu27 chair quadruplex; type: binding; settings: exposure to light
Description: The two quadruplex conformations of Pu27 were contacted with compounds known to bind quadruplex structures. Specifically, the two conformations were contacted with TMPyP4 and TMPyP2 (FIG. 4A) to further confirm the biologically relevant quadruplex conformation (FIGS. 4B or 4C). It has been shown that both TMPyP4 and TMPyP2 catalyze the oxidation of DNA upon exposure to light, which results in DNA strand breakage in proximity to the binding sites (Han et al., J. Am. Chem. Soc. 123: 8902-8913 (2001)).
An identical cleavage pattern was produced by both compounds for the basket quadruplex (FIG. 4B). DNA damage was centered on the constituent guanines of the six-base bridging loop, inferring that both porphyrins are able to bind to this region, but in a nonspecific way that is neither intercalating nor end-stacking (FIG. 4A).

CMYC [2] = assay: CMYC expression in Ramos Burkitt's lymphoma cell line (NHE III1 retained); type: cell-based
Experimental: (§1) The importance of the NHE III1 sequence in mediating the CMYC transcriptional inhibition by TMPyP4 was assessed. Two Burkitt's lymphoma cell lines with different translocation break points within the CMYC and immunoglobulin loci were analyzed, which are referred to as the Ramos cell line and the CA46 cell line. While the Ramos cell line retained the NHE III1 during the translocation, the CA46 cell line lost this element, together with the P1 and P2 promoters (FIG. 5A). When the NHE III1 element was deleted, as in the CA46 cell line, TMPyP4 had no effect on CMYC transcriptional activation.

CMYC [3] = assay: CMYC transcription in CA46 Burkitt's lymphoma cell line (NHE III1 deleted); type: cell-based; settings: NHE III1 element deleted
Experimental: as §1

RET = RET RNA expression in MiaPaCa cells (RT-PCR); type: cell-based, human; settings: for downregulation of RET RNA expression: IC70 concentration
Experimental: The effects of two test molecules also were assessed for the RET quadruplex. MiaPaCa-2 (human pancreatic tumor) were obtained from ATCC and were cultured at 37° C./5% CO2 in RPMI medium (Cellgro) with 10% fetal bovine serum (FBS), 50 U/ml penicillin G sodium, and 50 U/ml streptomycin sulfate (Gibco/BRL). Cells were treated with TMPyP4 and telomestatin (for the latter molecule, see, e.g., Shin-ya et al., J. Am. Chem. Soc. 123:1262 (2001)) when they reached ˜50% confluency. MiaPaCa cells were first washed with 5 ml of sterile phosphate-buffered saline (PBS, Fisher Scientific). The PBS was aspirated from the cells by vacuum, and replaced with 5 ml of Opti-MEM medium (Gibco-BRL) containing 6 μl Lipofectin (Invitrogen). Compounds then were added to the medium. Cells were allowed to grow at 37° C./5% CO2 for 6 hours to allow for transfection, and the medium was replaced with normal growth medium. […] The trypsin was neutralized with an equal volume of culture medium, the cells were then pelleted from this mixture by centrifugation at 500×gravity, the supernatant was aspirated, and the pellet was washed in PBS, recentrifuged, and frozen at −80° C.
RET RNA then was extracted from the cells. Cell pellets were thawed and resuspended in 400 μl of a buffer from a commercially available kit (i.e., Buffer RA1 from the NucleoSpin RNA II Kit (Clontech)). Total cellular RNA extraction was performed according to the manufacturer's protocol. Reverse transcription was performed to convert mRNA (i.e., polyadenylated RNA) to cDNA, and RET-specific primers were used in PCR to amplify RET message.

CMYC [4] = assay: CMYC expression in MiaPaCa cells; type: cell-based, human; settings: 100 μM
CMYC quadruplex = assay: Stabilization of CMYC quadruplex structure (polymerase arrest / chemical footprinting); type: biochemical
Description: (§2) Nucleic acids in a chair conformation often have similar but not identical structures when compared to one another and differences can manifest in loop size and nucleotide sequence, quadruplex geometry, quadruplex stability, the number of alternative chair structures for a given nucleotide sequence, and chemical reactivity, and binding of other molecules. Polymerase arrest assays and chemical footprinting studies applied to the CMYC chair quadruplex structure as described hereafter also were applied to nucleotide sequences upstream of the PDGFA and RET genes. It was determined that the NHE regions 5′ of the RET and PDGFA genes formed chair quadruplex structures that regulated transcription. FIG. 6A depicts a generalized quadruplex chair structure formed in the CMYC, PDGFA, and RET regulatory regions. In this chair structure, CMYC and RET have two stable tetrads and PDGFA has three stable tetrads. The N1 loop for CMYC is TG, for RET is GCG, and for PDGFA is CG. The N2 loop for CMYC is GAG, for RET is GCG, and for PDGFA is GCG. The N3 loop for CMYC is TG, for RET is GCG, and for PDGFA is CG (form A) or AG (form B). The different forms of the PDGFA quadruplex are depicted in FIG. 6C and the RET quadruplex structure is depicted in FIG. 6B. […]

RET quadruplex [5] = assay: Stabilization of RET quadruplex structure (polymerase arrest / chemical footprinting); type: biochemical
Description: as §2

PDGFA quadruplex = assay: Stabilization of PDGFA quadruplex structure (polymerase arrest / chemical footprinting); type: biochemical
Description: as §2

RET quadruplex [6] = assay: Photo-induced cleavage of the RET quadruplex; type: binding
G-quadruplex structures = settings: cited from earlier work
CMYC [7] = settings: cited from earlier work

SMILES	polymerase arrest at quadruplex arrest site ([1]; 0.5 μM compound, 60° C.) [%]	polymerase arrest at quadruplex arrest site ([1]; 5 μM compound, 60° C.)	conformation of Pu27 stabilized ([1]; chair versus basket)	photocleavage pattern of chair G-quadruplex (Pu27 chair G-quadruplex)	effect on CMYC expression (CMYC [2])	effect on CMYC transcriptional activation (CMYC [3])	downregulation of RET (RET; 100 μM)	downregulation of CMYC (CMYC [4])	stabilization of CMYC quadruplex structure (CMYC quadruplex)	stabilization of RET quadruplex structure (RET quadruplex [5])	stabilization of PDGFA quadruplex structure (PDGFA quadruplex)	binding site on RET quadruplex from photo-induced cleavage (RET quadruplex [6])	binding to G-quadruplex structures (G-quadruplex structures)	effect on CMYC transcription and protein expression (CMYC [7])	downregulation of RET RNA expression (RET; after 48 hours)	downregulation of RET RNA expression (RET; after 72 hours)	stabilization of the quadruplex arrest site ([1]; up to 20 μM compound, 60° C.)
C[n+]1ccc(-c2c3nc(c(-c4cc[n+](C)cc4)c4ccc([nH]4)c(-c4cc[n+](C)cc4)c4ccc([nH]4)c(-c4cc[n+](C)cc4)c4nc2C=C4)C=C3)cc1 [TMPyP4]	~65	virtually total arrest	stabilizes the chair conformation over the basket conformation	specific cleavage pattern	lowered CMYC expression	no effect	did not significantly downregulate	about 50%	stabilized	not the RET quadruplex	stabilized	binds above and below the two stable tetrads	able to bind	lowered	–	–	–
Cc1oc2nc1-c1nc(co1)-c1nc(co1)-c1nc(co1)-c1nc(co1)-c1nc(co1)C1=NC(CS1)c1nc-2c(C)o1 (centres unmarked) [telomestatin]	–	–	–	–	–	–	–	–	–	–	–	–	–	–	at least 50%	at least 50%	–
C[n+]1ccccc1-c1c2nc(c(-c3cccc[n+]3C)c3ccc([nH]3)c(-c3cccc[n+]3C)c3ccc([nH]3)c(-c3cccc[n+]3C)c3nc1C=C3)C=C2 [TMPyP2]	–	–	–	–	not	–	–	–	–	–	–	–	bound with less affinity	not	–	–	only modestly stabilized
